Measurements reported in paper PMC12261321, “Inhibitors of the Bacterioferritin Ferredoxin Complex Dysregulate Iron Homeostasis and Kill and Biofilm-Embedded Cells” (ACS Infectious Diseases, 2025).
Entries after “also recorded” stand apart in the source; their conditions may differ.

The compounds below were run on P. aeruginosa PAO1 (assay: Pyoverdin secreted by P. aeruginosa PAO1 (fluorescence)). Details: planktonic cells, 24 h; KM-5–25 80 μM, KM-5–35 60 μM, EB-5–73 40 μM, SB-17–140 80 μM.
Type: cell-based
Method: Dete rmination of pyoverdin secreted by P. aeruginosa PA O 1 . These experiments were conducted as previously reported13 with some modifications. Cells were cultured in modified M63 media (2 g / L ( N H 4)2SO4, 13.6 g/L KH2PO4 (Sigma Aldrich), 2 g/L glucose, 4 g/L cit ric acid, 5 g/ L technical grade casamino acids (B D scientific), 0.24 g/L MgSO4 (Alfa A esar), and 0.025% (w/v) HPMC, pH 7.0 adjusted with KOH) . Starter cultures in LB were diluted to OD600 = 0.0001 and cultured in a sh aker i ncubator (35 °C and 205 rpm) for 24 h, in the absen ce ( control) and in the presence of KM -5- 25 (80 μM), KM-5- 35 (60 μM), EB- 5- 73 (40 μM), and SB-17- 140 (80 μM); al l cell suspensions have 1.5% DMSO. 700 μ L of the culture wer e clarified by centrifugation (16,200 x g, 10 min, 4 °C), diluted 10-fold in PBS and then analyzed by acquiring fluorescence emission spectra (410- 600 nm) with excitation at 400 nm (10 nm slit width) and emission at λ max= 430 nm (10 nm slit width) using an Ag ilent (Cary Eclipse) fluorescen ce sp ectrophotometer. The flu orescen ce intensity of th e treated sample (FI)Tr and that of the untreated control (FI)Un was normalized to the corresponding OD600 and the ratio (FI/OD600)Tr / (F I/ OD600)Un is […]
The determination for each of the compounds was carri ed out in 5 biological replicates. […]

For O=C1NC(=O)c2c(NCc3cccc(Br)c3O)cccc21 [EB-5-73], the “pyoverdine secretion, (FI/OD600)Tr/(FI/OD600)Un” value (shortened to “pyoverdine secretion”) was “did not secrete more pyoverdine than the untreated control cultures; also recorded: secrete the same amount of pyoverdine as the untreated control”.
In the case of O=C1NC(=O)c2c(NCc3cc(Cl)ccc3O)cccc21 [KM-5-25, 4-((5-Chloro-2-hydroxybenzyl)amino)isoindoline-1,3-dione], the “pyoverdine secretion” value is reported as “overproduction of pyoverdine; also recorded: pyoverdine overproduction phenotype”.
With O=C1NC(=O)c2c(NCc3cc(Br)ccc3O)cccc21 [KM-5-35, 4-((5-Bromo-2-hydroxybenzyl)amino)isoindoline-1,3-dione] the “pyoverdine secretion” value was “overproduction of pyoverdine; also recorded: pyoverdine overproduction phenotype”.
With O=C1NC(=O)c2c(NCc3cccc4c3CCN4)cccc21 [SB-17-140] the “pyoverdine secretion” value was “did not secrete more pyoverdine than the untreated control cultures; also recorded: secrete the same amount of pyoverdine as the untreated control”.

Each compound was assayed on A. baumannii 5075 (assay: Compound intracellular accumulation in A. baumannii 5075). Details: cells treated with 30 µM compound.
Type: cell-based
Method: Determination of Compound Intracellular Accumulation. These experiments were carri ed out as reported previously,16 with modifications. Starter cultures o f P. aeruginosa PAO1 or A. baumannii 5075 were centrifuged for 10 min at 3148 x g and 4 °C, resuspended in 5 mL of fresh LB, diluted to OD 600 = 0.03 in fresh LB media (250 mL), and then cultured at 35 °C and 220 rpm for 4 h. Th e resultant cul ture was diluted to OD600 = 0.4 in 250 mL LB and centrifuged at 4 °C and 3470 x g for 10 min. The cell pellet was resuspended in 20 mL of PBS and transfer red to a 50 mL conical tube, where it was centrifuged at 4 °C and 3148 x g for 20 min. The cell pellet was resuspended in 15 mL of PBS supplemented with 0.05% (w/v) HPMC and the suspension was divided equally into two new conical tubes. One of th e tubes was treated with 150 µL of DMSO (control), while the second tube was treated with 150 µL of compound in DMSO solution to produce a compound final concentration of 30 µM or 15 µM. The resultant mixtures were incubated at 37 °C and 220 rpm for 15 min, placed on ice for 1 min, and then centrifuged at 3148 x g rpm and 4 °C for 10 min. The cell pellet was resuspended in 7.5 mL of ice -cold PBS and vortexed (10 s, five t imes). 200 µL of the cell suspension was used to plate and enumerate viable cells, and 800 µL of the suspension was lay ered onto 700 µL of chilled silicon oil contained in 1.5 mL Eppendo rf tubes and then centrifuged at 4 °C ( 900 x g) for 10 min, then again at 16,200 x g for 5 min to allow pass ag e of the cell suspension through the silicon oil layer. The aqueous and oil layers were removed, and the cell pellet was washed twice in PBS (800 μ L), each time transferring the cell suspension to a new Eppendorf tube and then centrifuging at 16,200 x g. The cell pellet was lysed in 800 µL methanol by vortexing followed by 10 min incubationat room temperatur e. The lysate suspension was pelleted, the supernatant was transferred to a new Eppendorf tube and then placed into a vacuum concentrator (Eppendorf 5301 Vacufuge) to evaporate the methanol (4 h). The dried […]
cell lysate was resuspend ed in 600 µL of DMSO and centrifuged at 16,200 x g rpm for 5 min at room temperature.
The clarified supernatant was titrated with small volumes of 250 µM compound stock, measuring the fluorescen ce after the addition of each aliquot with the aid of a Cary Eclipse Fluorescence Spectrometer (Agilent). The compound concentration was determined utilizing the standard addition method,17 and compound accumulation is reported as nmol compound/1012 CFU/mL. […]
Eclipse) fluorescen ce sp ectrophotometer. The flu orescen ce intensity of th e treated sample (FI)Tr and that of the untreated control (FI)Un was normalized to the corresponding OD600 and the ratio (FI/OD600)Tr / (F I/ OD600)Un is […]
The determination for each of the compounds was carri ed out in 5 biological replicates.
Determination of Siderophores Secreted by A. baumannii . The chromo azurol S (CAS) solution was prepared as previously reported18 with some modifications. The blue dye solution (0.6 g/L CAS ( ACROS Organics), 100 μM FeCl3·6H2O, and 0.73 g/L hexadecyltrimethylammonium bromide (HDTMA, ACROS Organics) was autoclaved and stored in the dark. The MM9-PIPES buffer solution (3 g/L KH2PO4, 5 g/L NaCl, 10 g/L NH4C l, 32.24 g/L piperazine -1,4-bis-2- ethanesulfonic acid (PIPES , Sigma Aldrich), pH 6.75) was sterilized using a 0.22 µm syringe filter (VWR). Prior to every experimen t, blue dye solution (0.5 mL) was mixed with 4.5 mL of MM9-PIPES solution. An overnight culture of A. baumannii 5075 was diluted to OD600 = 0.0001 with modified M63 media (no citric acid) supplemented with 4 μ M Fe and transferred to a 96-well plate, wh ere it was cul tured for 20

Compared with O=C1NC(=O)c2c(NCc3ccccc3O)cccc21 [Analog 11, 4-((2-Hydroxybenzyl)amino)isoindoline-1,3-dione], Cc1ccc(CNc2cccc3c2C(=O)NC3=O)c(O)c1 [EB-5-69] is higher in “Intracell. Accum, A. baumannii 5075” value: 55 ± 15 nmol/1012 CFU for the first, 193 ± 33 nmol/1012 CFU for the second.

Compared with Cc1cccc(CNc2cccc3c2C(=O)NC3=O)c1O [EB-5-70], O=C1NC(=O)c2c(NCc3cccc(Br)c3O)cccc21 [EB-5-73] is higher in “Intracell. Accum, A. baumannii 5075” value: 99 ± 15 nmol/1012 CFU for the first, 201 ± 30 nmol/1012 CFU for the second.

First: O=C1NC(=O)c2c(NCc3c(O)cccc3F)cccc21 [EB-5-71]
Second: O=C1NC(=O)c2c(NCc3c(O)cccc3Cl)cccc21 [KM-5-29]
The “Intracell. Accum, A. baumannii 5075” value of the first is lower: 495 ± 35 nmol/1012 CFU for the first, 2614 ±134 nmol/1012 CFU for the second.

First: O=C1NC(=O)c2c(NCc3cccc(F)c3O)cccc21 [EB-5-80]
Second: O=C1NC(=O)c2c(NCc3cccc(Cl)c3O)cccc21 [KM-5-30]
The “Intracell. Accum, A. baumannii 5075” value of the first is lower: 44 ± 6 nmol/1012 CFU for the first, 169 ± 62 nmol/1012 CFU for the second.

Compared with O=C1NC(=O)c2c(NCc3cc(F)ccc3O)cccc21 [JAG-5-7], O=C1NC(=O)c2c(NCc3cc(F)ccc3O)ccc(Br)c21 [SB-16-67] is higher in “Intracell. Accum, A. baumannii 5075” value: 157 ± 54 nmol/1012 CFU for the first, 1173 ± 53 nmol/1012 CFU for the second.

With O=C1NC(=O)c2c(NCc3cc(Br)c(O)cc3O)cccc21 [SB-16-137] the “Intracell. Accum, A. baumannii 5075” value was 86 ± 23 nmol/1012 CFU.

Each compound was assayed on A. baumannii 5075 in the same assay as above. Details: ‡ treatment with 15 µM compound.
Type: cell-based

O=C1NC(=O)c2c(NCc3cc(Cl)ccc3O)ccc(Br)c21 [SB-16-51] and O=C1NC(=O)c2c(NCc3cc(Br)ccc3O)ccc(Cl)c21 [SB-16-124] are within error of each other in “Intracell. Accum, A. baumannii 5075” value: 2137 ± 311 nmol/1012 CFU for the first, 2626 ± 389 nmol/1012 CFU for the second.

First: CC(C)(C)c1ccc(O)c(CNc2cccc3c2C(=O)NC3=O)c1 [SB-16-53]
Second: Cc1cc(Br)cc(CNc2cccc3c2C(=O)NC3=O)c1O [SB-16-106]
The “Intracell. Accum, A. baumannii 5075” value of the first is lower: 327 ± 17 nmol/1012 CFU for the first, 782 ± 11 nmol/1012 CFU for the second.

In the case of Cc1cc(Cl)cc(CNc2cccc3c2C(=O)NC3=O)c1O [SB-16-156], the “Intracell. Accum, A. baumannii 5075” value is reported as 671 ± 89 nmol/1012 CFU.
